Experimental data published in patent US20260168983A1, “YaxAB NANOPORE, NANOPORE SYSTEM COMPRISING SAME AND APPLICATIONS THEREOF” (KOREA RESEARCH INSTITUTE OF BIOSCIENCE AND BIOTECHNOLOGY, priority 2022, published 2026).
“Also recorded” adds a separate entry of the source.

Assays:
BRD4-BD1 protein = BRD4-BD1 protein (Homo sapiens, UniProt O60885); conditions: 1 M LiCl, pH 7.5
Bcl-xL protein = Bcl-xL protein (Homo sapiens, UniProt Q07817)
Chain of Bcl-xL protein (Q07817 with tags, fused parts or gaps DEL45-84): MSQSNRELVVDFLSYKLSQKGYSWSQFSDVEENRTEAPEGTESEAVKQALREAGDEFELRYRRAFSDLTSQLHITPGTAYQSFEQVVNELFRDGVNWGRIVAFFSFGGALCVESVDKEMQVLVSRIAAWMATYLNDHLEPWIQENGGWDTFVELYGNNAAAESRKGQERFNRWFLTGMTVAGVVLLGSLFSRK

SMILES | nanopore current blockade signal of BRD4-BD1 with ligand (BRD4-BD1 protein) | current noise (IN) signal of Bcl-xL on individual treatment (Bcl-xL protein; FIG. 17A) | change in pattern of ionic current / current blockade of Bcl-xL on addition of ligand (Bcl-xL protein; ligand added individually to Bcl-xL in cis compartment)
CCOc1cc(N2CCC(O)CC2)ccc1Nc1ncc2c(n1)N(C)c1ccccc1C(=O)N2C [XMD8-92] | characteristic nanopore current blockade patterns were observed |  | 
CN(C)CC[C@H](CSc1ccccc1)Nc1ccc(S(=O)(=O)NC(=O)c2ccc(N3CCN(Cc4ccccc4-c4ccc(Cl)cc4)CC3)cc2)cc1[N+](=O)[O-] [ABT-737] |  | specifically increased | change in pattern; also recorded: the pattern of ionic current changed significantly
